Results reported in US20120328696A1, “ANTI-PARKINSONIAN COMPOUND ACETYLSALICYLIC ACID MALTOL ESTER” (Hutecs Korea Pharmaceutical Co., Ltd., priority 2008, published 2012).

What was measured:
C57BL/6 mice = assay: Locomotor activity after MPTP; assay type: in vivo; settings: AME 25 mg/kg p.o.; MPTP 25 mg/kg i.p. once a day for 7 days; 3 days after final MPTP
Method: (§1) AME (25 mg/kg, p.o) administration was started 4 days (twice daily) before the first injection of MPTP and continued for 7 consecutive days (once a day). MPTP was injected (25 mg/kg, i.p) once a day 1 h after AME treatment for consecutive 7 days.
Locomotor activity measured for 30 min 3 days after the last MPTP administration using an automated video-tracking system (Noldus Information Technology, Wagenin, The Netherlands). Eight test boxes (40×40×30 cm high) were operated simultaneously by an IBM computer. Animals were studied individually during locomotion in each test box, where they were adapted for 5 min before starting the experiment. […] The distance traveled in cm by the animals in horizontal locomotor activity was analyzed. Data were collected and analyzed between 09:00 and 17:00 h (Kim et al., 2001).

[1] = test system: dopamine (DA), DOPAC, HVA; assay: Striatal DA, DOPAC and HVA after MPTP (HPLC); assay type: in vivo, mice; settings: AME 25 mg/kg p.o., MPTP 25 mg/kg i.p. x7 days
Method: as §1
At 3 days after last MPTP injection, mice were killed by cervical dislocation. The brains were removed and placed on an ice-cooled plate. Striatum was dissected and immediately frozen on dry ice and stored at −70° C. until extraction. Brain regions obtained from each animal were weighed, ultrasonicated in 10% perchloric acid containing 10 ng/mg of the internal standard dihydroxybenzilamine, and centrifuged at 20,000×g for 10 min. The levels of DA and its metabolites 3,4-dihydroxyphenylacetic acid (DOPAC) and homovanillic acid (HVA) in brain tissue extracts were determined by HPLC coupled with electrochemical detection as described (Kim et al., 1999). Briefly, striatal tissues were sonicated in 0.2 M perchloric acid (20% W/V) containing the internal standard 3,4-dihydroxybenzylamine (10 mg wet tissue/ml). The homogenate was centrifuged and a 20 μl aliquot of the supernatant was injected into the HPLC equipped with a 3 μm C18 column. The mobile phase was comprised of 26 ml of acetonitrile, 21 ml of tetrahydrofuran and 960 ml of 0.15 M monochloroacetic acid (pH 3.0) containing 50 mg/l of EDTA and 200 mg/l of sodium octyl sulfate. The amount of DA, DOPAC and HVA were determined by comparison of peak height ratio of tissue sample with standards, and were expressed in nanograms per gram of wet weight of tissue.

tyrosine hydroxylase = assay: Striatal and nigral TH-like immunoreactivity after MPTP (immunocytochemistry); assay type: in vivo, mice; settings: AME 25 mg/kg p.o., MPTP 25 mg/kg i.p. x7 days
Method: as §1
Animals were sacrificed at 3 days after final MPTP-treatment. They were anesthetized with 60% urethane and perfused transcardially with 200 ml of 50 mM phosphate buffered saline (PBS), followed by 50 ml of paraformaldehyde in PBS. The brain were fixed at 4° C. for 24 h in the same fixative and then cryoprotected in 30% sucrose. The brains were sectioned on a horizontal sliding microstome into 35 μm transverse free-floating sections. The immunocytochemistry was performed as described previously (Kim et al., 2000a; Kim et al., 2000b). Briefly, prior to incubation with the primary antibodies, sections were preincubated with 0.3% hydrogen peroxide in PBS for 30 min (to block endogenous peroxidase activity), then in PBS containing 0.4% Triton X-100 for 20 min and 1% normal serum for 20 min. […] The quantitative analyses were performed using a computer-based image analysis system (Optimas version 6.2; Neurolucida Program) (Kim et al., 1999).

CC(=O)Oc1ccccc1C(=O)Oc1c(C)occc1=O [AME, 3-(2-methyl-4-pyronyl)-2-acetyloxybenzoate]
effect on MPTP-induced hypolocomotor activity (C57BL/6 mice): significant attenuated
effect on MPTP-induced increase in DA turnover rate ([1]; p<0.01 vs. MPTP alone): significant attenuated
effect on MPTP-induced reduction in striatal HVA ([1]; p<0.01 vs. MPTP alone): significant attenuated
effect on MPTP-induced reduction in striatal dopamine (DA) ([1]; p<0.01 vs. MPTP alone): significant attenuated
effect on MPTP-induced reduction in striatal DOPAC ([1]; p<0.05 vs. MPTP alone): significant attenuated
effect on MPTP-induced decrease in striatal TH-IR (tyrosine hydroxylase; striatum): significantly attenuated these decreases in TH-IR
effect on MPTP-induced decrease in substantia nigra TH-IR (tyrosine hydroxylase; substantia nigra): significantly attenuated these decreases in TH-IR
